Marks after values point to notes of the source that are not given here.
Legend:
Type in all cases: cell-based, human
[1] = test system: NPC1 patient cell fibroblasts; assay: Filipin Staining Assay to Detect Free Cholesterol Accumulation in NPC Cells; conditions: filipin fluorescence relative to untreated cells; for activity at 1 µM: Homo sapiens, Fibroblast, read-out: % storage at 1 μM
Experimental: Filipin Staining Assay to Detect Free Cholesterol Accumulation in NPC Cells. Compounds were evaluated for their effect on the NPC1 cellular phenotype by staining treated NPC1 patient cell fibroblasts with filipin, which recognizes free unesterified cholesterol. Compounds that upregulate the NPC1 promoter were expected to reduce the filipin staining in treated NPC1 fibroblasts compared to untreated NPC1 fibroblasts, indicating clearance of unesterified cholesterol. Conversely, inhibitors of the NPC1 promoter were expected to increase filipin staining in wild-type fibroblasts, thus indicating the emergence of an NPC-like phenotype. Briefly, cells were grown in lipoprotein-deficient medium for 3-4 days, and then the medium was replaced and supplemented with test compound plus 50 μg/mL low-density lipoprotein (LDL). After 24-48 hours, cells were stained with filipin and scored under the 40× magnification filter using the integrated morphometry function in the Metavue program (Molecular Devices). Test compounds that decreased the intensity of filipin fluorescence to less than 50% of untreated cells are considered of particular interest.

[2] = test system: NPC1 promoter; assay: Confirmation Assay of NPC1 Promoter Activators: Renilla Luciferase (Huh7); conditions: Homo sapiens, Huh-7, 24 hours; for Emax: read-out: NPC1-renilla Eff.
Experimental: Confirmation Assay of NPC1 Promoter Activators: Renilla Luciferase. The confirmation assay was carried out using an assay in which the NPC1 promoter drives the expression of a different luciferase protein from the one used in the primary screen. The NPC1 promoter was cloned in front of the renilla luciferase reporter gene. NPC1 promoter activation results in renilla luciferase expression. This vector was used to generate Huh7 cell lines stably expressing the NPC1-renilla luciferase vector. These cells were propagated and maintained in medium containing RPMI-1640 supplemented with 10% FBS, 2 mM L-glutamine, and 50 μg/mL penicillin/streptomycin. Cells were plated for assays in OPTI-MEM I reduced-serum medium supplemented with 10% FBS at 1,500 cells/well in 5 μL in 1,536-well white opaque plates and then 23 nL/well of compound in DMSO solution were added through pin transfer. The assay plates were incubated at 37° C. for 24 hours. The Amplite luciferase reporter gene assay kit was purchased from ABD Bioquest and prepared/stored according to manufacturer's recommendations. Luminescence signal was measured in a ViewLux plate reader (Perkin Elmer) after a 10 minute incubation at room temperature.

[3] = test system: Rab9 promoter; assay: qHTS of Rab9 Promoter-Luciferase Reporter Gene Assay (firefly, Huh7); conditions: 24 hours
Experimental: qHTS of Rab9 Promoter-Luciferase Reporter Gene Assay. For the primary screen, a promoter assay was developed by engineering a vector using approximately 1.5 kb of the Rab9 promoter to drive the expression of the firefly luciferase reporter gene. Thus, Rab9 promoter activation results in luciferase expression. This vector was used to generate Huh7 cell lines stably expressing the Rab9-luciferase vector. […] Cells were plated for assays in OPTI-MEM I reduced-serum medium supplemented with 10% FBS at 1,500 cells/well in 5 μL in 1,536-well white opaque plates with 23 nL/well of test compound in DMSO solution. The assay plates were incubated at 37° C. for 24 hours, after which 3 μL/well BriteLite plus luciferase detection reagent mixture (Perkin Elmer) was added. Luminescence signal was measured in a ViewLux plate reader (Perkin Elmer) after a 10 minute incubation at room temperature.

[4] = target: NPC1 promoter; assay: qHTS of NPC1 Promoter-Luciferase Reporter Gene Assay (firefly, Huh7); conditions: 24 hours
Experimental: qHTS of NPC1 Promoter-Luciferase Reporter Gene Assay. For the second primary screen, a promoter assay was developed by engineering a vector using approximately 1.5 kb of the NPC1 promoter to drive the expression of the firefly luciferase reporter gene. Thus, NPC1 promoter activation results in luciferase expression. This vector was used to generate Huh7 cell lines stably expressing the NPC1-luciferase vector. […] Cells were plated for assays in OPTI-MEM I reduced-serum medium supplemented with 10% FBS at 1,500 cells/well in 5 μL in 1,536-well white opaque plates with 23 nL/well of test compound in DMSO solution. The assay plates were incubated at 37° C. for 24 hours, after which 3 μL/well BriteLite plus luciferase detection reagent mixture (Perkin Elmer) was added. Luminescence signal was measured in a ViewLux plate reader (Perkin Elmer) after a 10 minute incubation at room temperature.

EC50 [4]	NPC1 Eff. [4]	EC50 [3]	Rab9 Eff. [3]	Structure (SMILES)	also measured
0.7 µM	208%	–	–	CCc1ccc(NC(=O)c2[nH]c(C)c(C(C)=O)c2C)cc1S(=O)(=O)Nc1ccc(Br)cc1 [Example 35]	–
8.3 µM	84%	12.2 µM	122%	CC(=O)c1c(C)[nH]c(C(=O)Nc2cccc(S(=O)(=O)N3CCOCC3)c2)c1C [Example 7]	–
2.7 µM	140%	–	–	CCc1ccc(NC(=O)c2[nH]c(C)c(C(C)=O)c2C)cc1S(=O)(=O)Nc1cccc(C#N)c1 [Example 33]	% storage at 0.1 μM [1]: 43%; % storage at 1 μM [1]: 35%
1.7 µM	248%	–	–	CC(=O)c1c(C)[nH]c(C(=O)Nc2ccc(C)c(S(=O)(=O)Nc3ccc(Br)cc3)c2)c1C [Example 34]	–
–	–	10.9 µM	82%	CC(=O)c1c(C)[nH]c(C(=O)Nc2cccc(S(=O)(=O)N3CCN(C)CC3)c2)c1C [Example 6]	NPC1 EC50 [4]: Inactive
–	–	10.9 µM	110%	CC(=O)c1ccc(C(=O)Nc2cccc(S(=O)(=O)N(C)C)c2)cc1 [Example 20]	NPC1 EC50 [4]: Inactive
0.9 µM	129%	–	–	COc1ccc(NC(=O)c2[nH]c(C)c(C(C)=O)c2C)cc1S(=O)(=O)Nc1cccc(C#N)c1 [Example 40]	% storage at 1 μM [1]: 29%
4.3 µM	80%	–	–	CC(=O)c1c(C)[nH]c(C(=O)Nc2cccc(S(=O)(=O)Nc3ccc(Br)cc3)c2)c1C [Example 32]	–
21.6 µM	83%	–	–	CC(=O)c1c(C)c(C(=O)Nc2cccc(S(=O)(=O)N(C)C)c2)n(C)c1C [Example 10]	Rab9 EC50 [3]: Inactive
15.4 µM	71^a %	–	–	CC(=O)c1c(C)[nH]c(C(=O)Nc2cccc(S(=O)(=O)Nc3ccc(Br)c(F)c3)c2)c1C [Example 23]	–
7.7 µM	155%	8.7 µM	181%	CCN(CC)S(=O)(=O)c1cccc(NC(=O)c2[nH]c(C)c(C(C)=O)c2C)c1 [Example 2]	–
2.7 to 2.9 µM	196-205%	2 µM	153%	CC(=O)c1c(C)[nH]c(C(=O)Nc2cccc(S(=O)(=O)N3CCCCCC3)c2)c1C [Example 5]	–
8.7 µM	100%	–	–	COc1ccc(NC(=O)c2[nH]c(C)c(C(C)=O)c2C)cc1S(=O)(=O)Nc1ccc(C#N)cc1 [Example 41]	% storage at 1 μM [1]: 58%
3.4 µM	259%	–	–	CCc1ccc(NC(=O)c2[nH]c(C)c(C(C)=O)c2C)cc1S(=O)(=O)Nc1ccc(C#N)cc1 [Example 38]	% storage at 1 μM [1]: 62%
8.6 µM	40%	19.4 µM	94%	CC(=O)c1cccc(C(=O)Nc2cccc(S(=O)(=O)N(C)C)c2)c1 [Example 19]	–

More lines, now with the values behind:

Structure (SMILES)	EC50 [4]	NPC1 Eff. [4]	EC50 [3]	Rab9 Eff. [3]	also measured
CC(=O)c1c(C)[nH]c(C(=O)Nc2ccc(OCCCN(C)C)c(S(=O)(=O)Nc3ccc(Br)cc3)c2)c1C [Example 54]	–	–	–	–	% storage at 1 μM [1]: 60%
COc1ccc(NC(=O)c2c(C)c(C(C)=O)c(C)n2C)cc1S(=O)(=O)Nc1ccc(Br)cc1 [Example 44]	–	–	–	–	EC50 [2]: 0.5 µM; Emax [2]: 245%
CCc1c(C)[nH]c(C(=O)Nc2cccc(S(=O)(=O)N(C)C)c2)c1C [Example 9]	8.6 µM	47%	–	–	Rab9 EC50 [3]: Inactive
COc1ccc(NC(=O)c2c[nH]cn2)cc1S(=O)(=O)Nc1ccc(Br)cc1 [Example 56]	–	–	–	–	% storage at 0.1 μM [1]: 50%; % storage at 1 μM [1]: 48%
COc1ccc(NC(=O)c2[nH]c(C)c(C(C)=O)c2C)cc1S(=O)(=O)Nc1ccc(Cl)cc1 [Example 58]	–	–	–	–	% storage at 1 μM [1]: 58%
COc1ccc(NC(=O)c2[nH]c(C)cc2C)cc1S(=O)(=O)Nc1ccc(Br)cc1 [Example 42]	–	–	–	–	activity at 1 µM [1]: 47%; % storage at 0.1 μM [1]: 49%; EC50 [2]: 2.7 µM; Emax [2]: 119%
COc1ccc(NC(=O)c2ncc[nH]2)cc1S(=O)(=O)Nc1ccc(Br)cc1 [Example 55]	–	–	–	–	% storage at 1 μM [1]: 30%
Cc1ccc(C(=O)Nc2cccc(S(=O)(=O)N(C)C)c2)c(C)c1 [Example 18]	5.4 µM	79%	12.2 µM	97%	–
COc1ccc(NC(=O)c2cccnc2)cc1S(=O)(=O)Nc1ccc(Br)cc1 [Example 51]	–	–	–	–	activity at 1 µM [1]: 29%; EC50 [2]: 2.7 µM; Emax [2]: 257%
COc1ccc(NC(=O)c2c(C)cccc2C)cc1S(=O)(=O)Nc1ccc(Br)cc1 [Example 46]	–	–	–	–	activity at 1 µM [1]: 46%; % storage at 0.1 μM [1]: 26%; EC50 [2]: 1.1 µM; Emax [2]: 192%
COc1ccc(NC(=O)c2cccnc2C)cc1S(=O)(=O)Nc1ccc(Br)cc1 [Example 49]	–	–	–	–	activity at 1 µM [1]: 30%; EC50 [2]: 5.5 µM; Emax [2]: 395%
CN(C)S(=O)(=O)c1cccc(NC(=O)c2ccccc2C(F)(F)F)c1 [Example 16]	1.2 µM	125%	1.4 µM	155%	–
Cc1ccc(C(=O)Nc2cccc(S(=O)(=O)N(C)C)c2)cc1 [Example 13]	–	–	6.9 µM	54%	NPC1 EC50 [4]: Inactive
Cc1ccccc1C(=O)Nc1cccc(S(=O)(=O)N(C)C)c1 [Example 14]	4.8 µM	51%	17.3 µM	114%	–
COc1ccc(NC(=O)c2[nH]c(C)c(C(C)=O)c2C)cc1S(=O)(=O)C1CCCCCC1 [Example 53]	–	–	–	–	activity at 1 µM [1]: 24%; % storage at 0.1 μM [1]: 55%
Cc1cccc(C(=O)Nc2cccc(S(=O)(=O)N(C)C)c2)c1 [Example 15]	6.1 µM	81%	19.4 µM	75%	–
COc1ccc(NC(=O)c2ccc[nH]2)cc1S(=O)(=O)Nc1ccc(Br)cc1 [Example 43]	–	–	–	–	EC50 [2]: 4.3 µM; Emax [2]: 88%
CC(=O)c1c(C)[nH]c(C(=O)Nc2cccc(S(=O)(=O)N3CCCC3)c2)c1C [Example 3]	6.1 µM	112%	7.7 µM	149%	–
COc1ccc(NC(=O)c2ccccc2)cc1S(=O)(=O)Nc1ccc(Br)cc1 [Example 45]	–	–	–	–	activity at 1 µM [1]: 60%; EC50 [2]: 1.1 µM; Emax [2]: 223%
COc1ccc(NC(=O)c2c[nH]c(-c3ccccc3)n2)cc1S(=O)(=O)Nc1ccc(Br)cc1 [Example 57]	–	–	–	–	% storage at 0.1 μM [1]: 70%; % storage at 1 μM [1]: 41%
Cc1cccc(C)c1C(=O)Nc1cccc(S(=O)(=O)N(C)C)c1 [Example 17]	5.4 µM	127%	5.5 µM	131%	–
Cc1cc(C)c(C(=O)Nc2cccc(S(=O)(=O)N(C)C)c2)[nH]1 [Example 8]	17.2 µM	48%	38.7 µM	82%	–
CC(=O)c1c(C)[nH]c(C(=O)Nc2cccc(S(=O)(=O)Nc3cccc(C#N)c3)c2)c1C [Example 31]	–	–	–	–	% storage at 1 μM [1]: 56%; NPC1 EC50 [4]: Inactive
COc1ccc(NC(=O)c2[nH]c(C)c(C(C)=O)c2C)cc1S(=O)(=O)C1CCc2ccccc2CC1 [Example 59]	–	–	–	–	activity at 1 µM [1]: 40%
CC(=O)c1c(C)[nH]c(C(=O)Nc2cccc(S(=O)(=O)N3CCCCC3)c2)c1C [Example 4]	2.7 µM	163%	1.7 µM	134%	–
